This is an account of results in ChEMBL document CHEMBL3507680, “University of Dundee, Gates Library screen for HepG2 cell viability”.

The nature of this data set: Human HepG2 cell viability assay in 384 well format. The format is toxicity, cell-based. Further details: dose 125 nL, time 70.5 hour; concentration not given beside the values. As to conditions: HepG2 cells, read-out: Inhibition.

Consider `Cc1cccc(SC2CCN(Cc3nc(CC4CC4)no3)CC2)c1`, for which the cytotoxicity at 70.5 h stood at 0.0623%. Then `CCOC(=O)C1CCCCN1Cc1c[nH]nc1-c1ccc(F)cc1F` (stereo not drawn), with -7.54%; and `Cc1nc(C2CCCNC2)cc(N(C)CCc2ccccc2)n1` (stereo not drawn), with 20.6%; and `CC(C)(C)c1cn(C2CCN(C(=O)c3cnccn3)CC2)nn1`, with -13.1%. For the compound `CN(CCCc1cnn(C)c1)Cc1cc2n(n1)CCCN(C)C2`, the cytotoxicity at 70.5 h is -7.1%. For `COc1cc2ncn(Cc3ncc[nH]3)c(=O)c2cc1OC`, the cytotoxicity at 70.5 h is -23.4%. For the compound `O=C(O)c1ccnc(-c2ccnc(COc3ccc(Cl)cc3)n2)c1`, the cytotoxicity at 70.5 h was -9.69%. Then `Cc1ccccc1Oc1ncccc1CNC(=O)Cn1cccnc1=O`, with 3.17%; and `COc1cccc(OCC2CCCN(C(=O)CCn3ccnc3)C2)c1` (stereo not drawn), with 11.7%.

`CCc1nc(N2CCCC(CO)(CCOC)C2)ncc1C` (stereo not drawn): the cytotoxicity at 70.5 h is -7.73%. Then `Cc1ncsc1CCC(=O)N(C)Cc1nc2ccccc2n1C`, with -1.06%. Then `O=C(c1ccc(Cn2cnnn2)cc1)N1CCC(c2ccncc2)CC1`, with -3.04%.

`CC(C)N1CC(C(=O)N2CCc3c(nc(CC4CC4)[nH]c3=O)C2)CC1=O` (stereo not drawn): the cytotoxicity at 70.5 h was -2.23%. Then `CCCN1CCC(CC(=O)N(C)C(C)c2cncs2)CC1` (stereo not drawn), with -16.1%; and `CCOC(=O)c1ccc(N2CCN(Cc3c(C)nn(C)c3Cl)CC2)nc1`, with 12.7%; and `CO[C@H]1C[C@@H](O)C12CCN(Cc1nc(C(F)(F)F)no1)CC2`, with -10.9%. Then `Cc1noc(C)c1CCCNc1cnccn1`, with -16.9%; and `CC(C)CN1CC2(CCN(C(=O)C(O)c3ccccc3Cl)CC2)CC1=O` (stereo not drawn), with -5.68%; and `CCc1ccccc1-c1cc(C)nc(N)n1`, with -7.75%.

Regarding `COCc1cc(CNCc2c(C)n(CC(N)=O)c3ccccc23)n[nH]1`, the cytotoxicity at 70.5 h was -9.7%. For `Cc1cc(N2CCN(C(=O)Cc3c(C)nc(C)[nH]c3=O)CC2)cc(C)n1`, the cytotoxicity at 70.5 h came to 18.5%.

Take `CCc1ccc(CN2CCC(c3ccccc3C(=O)O)C2)nc1` (stereo not drawn): the cytotoxicity at 70.5 h is -13.9%. Then `COc1ccccc1Oc1ncccc1CNC(=O)C(C)CN` (stereo not drawn), with -9.25%; and `CCc1nc(C)c([C@H]2CN(C)C[C@@H]2C(=O)Nc2cccc3cn[nH]c23)[nH]1`, with -5.72%. Then `CCCn1cc(-c2cc(-c3cc(CC)n[nH]3)c(C#N)c(N)n2)c(C)n1`, with -3.18%; and `O=C(CN1CCCCCC1)NCc1ccc2[nH]c(=O)[nH]c2c1`, with -8.16%. Then `COc1cc(C(=O)N2C[C@H]3CC[C@@H]2CN(Cc2cscn2)C3)ccn1`, with -22.3%. On to `O=C(CCc1cn[nH]c1)N1C[C@@H](CN2CCOCC2)C[C@H](CO)C1`, for which the cytotoxicity at 70.5 h came out at 8.69%.

On to `Cc1nc(C(C)C)sc1C(=O)N1CCC(N2CCSCC2)CC1`, for which the cytotoxicity at 70.5 h is -12.7%.

For the compound `CCN(Cc1cn(C)nc1-c1ccc2c(c1)OCCO2)CC1CCCO1` (stereo not drawn), the cytotoxicity at 70.5 h was -6.76%. Then `CCc1noc(CN2C[C@H]3CC[C@@H]2CN(C2Cc4ccccc4C2)C3)n1`, with 4.55%; and `CCc1cc(N2CCN(c3ccc(Cl)cn3)CC2)n2nccc2n1`, with -1.55%.

For the compound `Cn1cc(C(=O)N2CCC(c3nccn3Cc3ccncc3)CC2)cn1`, the cytotoxicity at 70.5 h was -7.19%. For the compound `COc1ccc2cc(CN(C)CCN3CCCCC3=O)c(=O)[nH]c2c1`, the cytotoxicity at 70.5 h is -12.2%. Then `CC(C)c1nc(CN(C)Cc2ccc(O)c(C(=O)O)c2)cs1`, with -4.7%. For `O=C(CCc1cc2n(n1)CCN(CCCn1cccc1)C2)N1CCCC1` the value was -10.4%; for `O=C(Cc1ccc(CO)cc1)N1CCN(c2ccccc2Cl)C(=O)C1`, -9.48%; for `CS(=O)(=O)c1cnc(C2CCCC2)nc1C1CCCNC1` (stereo not drawn), 1.49%. Then `CCCOCC(=O)N1CCCC(c2nnc(CN3CCCCC3)n2C)C1` (stereo not drawn), with 9.63%. As for `Cc1ccc(N2CCC(C3CCN(CC(C)C)CC3)C2)nn1` (stereo not drawn), the cytotoxicity at 70.5 h was -6.28%.

As for `CCc1cnc(N2Cc3cnc(C(C)(C)C)nc3C2)nc1`, the cytotoxicity at 70.5 h is -3.57%. Then `COc1ccc(-c2cc(C3CCOC3)c(C#N)c(N)n2)cn1` (stereo not drawn), with 18.9%; and `Cn1ccnc1-c1cn(CCc2nnc(N)s2)nn1`, with 43.6%. For `CCn1c(C2CCNCC2)nn(CCn2cncn2)c1=O` the value was -6.69%; for `Cc1cncc(C(=O)N2CCNCC2C(=O)NCc2ccncc2)c1` (stereo not drawn), -1.53%; for `O=C(CNc1cc(-c2ccccc2)nc2ccnn12)NC1CC1`, -0.964%. Consider `COc1ccc(C)cc1-n1cnnc1C1CCCN(C)C1` (stereo not drawn), for which the cytotoxicity at 70.5 h was 9.2%. For `CN(Cc1cccc2ncccc12)C(=O)CCn1ccc(=O)[nH]c1=O` the value was -1.13%; for `Cc1nc(N(C)C)nc(NCCc2cnccn2)c1C`, -1.68%.

On to `O=S(=O)(CC1CC1)c1ncc(CN2CCOCC2)n1CC1CCCO1` (stereo not drawn), for which the cytotoxicity at 70.5 h was -0.667%. For `c1cc(CN2CCCN(c3ccc4cc[nH]c4n3)CC2)ccn1`, the cytotoxicity at 70.5 h is -1.4%. As to `CCCc1nnc(N(C)CC2CCCN(CC)C2)o1` (stereo not drawn), the cytotoxicity at 70.5 h turned out to be 15.4%.

Turning to `Cc1c(C2c3nc[nH]c3CCN2CCOCc2ccccc2)cnn1C` (stereo not drawn), the cytotoxicity at 70.5 h was -10.4%. For `CCN(Cc1c(F)cccc1Cl)c1cc(C2CCNCC2)nc(C)n1` the value was 2.62%. For `CCCc1ccc(CN2CCN(C(=O)N(C)C)[C@@H]3CS(=O)(=O)C[C@@H]32)o1` the value was -10.7%; for `CCc1ccc2ncn(Cc3ncc[nH]3)c(=O)c2c1`, -18.6%; for `CC(C)Cc1ncc2c(n1)CN(C(=O)Cn1c(=O)oc3ccccc31)C2`, -14.5%.

For the compound `CC(Cn1ccnc1)NCc1ccc2nonc2c1` (stereo not drawn), the cytotoxicity at 70.5 h was -2.31%. Turning to `CCc1ncc2c(n1)CN(c1cc(N3CCN(C)CC3)nc(N)n1)C2`, the cytotoxicity at 70.5 h stood at 25%. Then `Cc1cccc2[nH]c(C3CCN(C(=O)c4ccc[nH]4)CC3)nc12`, with -6.62%.

For the compound `Cc1nc(CNCc2cccnc2Oc2ccc(C)c(F)c2F)c[nH]1`, the cytotoxicity at 70.5 h amounted to 0.762%.

Consider `CN(CCN1CCCCCC1)C(=O)c1cc(CN2CCCC(O)C2)on1` (stereo not drawn), for which the cytotoxicity at 70.5 h was -10.1%.

As for `COCCN(C/C=C/c1ccccc1)Cc1ncc[nH]1`, the cytotoxicity at 70.5 h is -5.41%.

Take `c1ccc(Cc2noc(-c3ccc(NCC4CCCOC4)nc3)n2)cc1` (stereo not drawn): the cytotoxicity at 70.5 h was -2.44%. For `COc1ccc2c(C)c(C(=O)NCCCc3csc(N)n3)oc2c1` the value was 8.41%; for `CC(=O)N1CCCn2nc(CNS(=O)(=O)N3CCC(C)CC3)cc2C1`, -11.6%; for `CCn1nc(C)c(NC(=O)CN2CC[C@@H](F)C2)c1C`, -4.28%. Then `NC(=O)NCC(=O)N1C[C@H]2CC[C@@H]1CN(Cc1cscn1)C2`, with 9.8%; and `O=C(N[C@@H]1CCN(C(=O)c2ccc(F)cc2Cl)C[C@H]1O)c1ccccn1`, with -6.49%; and `Cc1nn2cc(CNc3nccc(CCC(F)(F)F)n3)nc2s1`, with -9.54%. For `COCc1cc(CNC(=O)c2c(C)c(C)cc(C)c2C)n[nH]1` the value was -4.32%; for `CCOc1cccc(C(=O)N2CCCn3nc(CCC(=O)O)cc3C2)c1`, -5.68%; for `COc1ccc(CN2CCCC3(CC2)CNC(=O)O3)cc1OC` (stereo not drawn), 12.1%.

With `Cc1ccccc1-n1cc(C2=CCN(CCN3CCOCC3)CC2)cn1`, the cytotoxicity at 70.5 h was 12.8%.

For the compound `COc1cccc(-c2noc(-c3ccc(NCC(C)C)nc3)n2)c1OC`, the cytotoxicity at 70.5 h was -2.74%.

In the case of `COCCc1noc(CN2CCC(c3ccccc3C(=O)O)C2)n1` (stereo not drawn), the cytotoxicity at 70.5 h was -20.1%. In the case of `Cc1nc2c(c(NCC3Cc4ccccc4CN3C)n1)CCNCC2` (stereo not drawn), the cytotoxicity at 70.5 h is -8.03%. For `Cc1nc(C(=O)N(Cc2c(C)nn(C)c2C)C(C)C)cs1` the value was -0.883%; for `CC(C)c1noc(C2CCCN2S(=O)(=O)N2CCCCCC2)n1` (stereo not drawn), -6.79%.

As to `Cc1nccc(NCc2cc3n(n2)CCCN(S(C)(=O)=O)C3)n1`, the cytotoxicity at 70.5 h is -3.08%. Then `CN(Cc1noc2c1CCCC2)C(=O)Nc1cccc(S(N)(=O)=O)c1`, with 17.1%. For `COc1ccc(-n2nc(C(C)C)nc2COC(C)C)cc1`, the cytotoxicity at 70.5 h worked out at 20.2%. With `CCn1c(C)nnc1SCCn1cc(-c2ncc[nH]2)nn1`, the cytotoxicity at 70.5 h is -5.72%.

Consider `O=C(O)c1ccnc(-c2ccnc(N3CCC4(CCO4)CC3)n2)c1`, for which the cytotoxicity at 70.5 h was -11.6%. On to `Cc1cccc(N2CCC(N3CCCC4(CNC(=O)O4)C3)CC2)c1C` (stereo not drawn), for which the cytotoxicity at 70.5 h was -7.33%. For the compound `CCCn1ccnc1CN1CCCC(CC)(CO)C1` (stereo not drawn), the cytotoxicity at 70.5 h is 26.9%. For `COCCC1(CO)CCCN(C(=O)CCC(F)(F)F)C1` (stereo not drawn) the value was -10.8%.

As to `c1ccc(NCCn2cc(C3CCCNC3)nn2)cc1` (stereo not drawn), the cytotoxicity at 70.5 h is -3.12%. Consider `N#CC1(C(=O)N2C[C@H](Nc3ccnc(N)n3)[C@@H](C3CC3)C2)CCOCC1`, for which the cytotoxicity at 70.5 h is -3.81%.

`CC(C)C1CN(C(=O)c2csc(CN(C)C)n2)CCC(=O)N1CC1CC1` (stereo not drawn): the cytotoxicity at 70.5 h is -10.8%.

Take `Cc1nc(C(C)C)sc1C(=O)N(C)CCCc1cnn(C)c1`: the cytotoxicity at 70.5 h is -7.28%. As to `Cc1ncc2c(c1CNC(=O)C1(C)CCCO1)CCNC2` (stereo not drawn), the cytotoxicity at 70.5 h is -7.21%. Then `CCCc1nc(N2CCCN3CCC[C@H]3C2)c2cnn(C)c2n1`, with 15.2%; and `COC(=O)CCNC(=O)c1coc(COc2ccc(F)cc2)n1`, with -5.99%; and `NC1(C(=O)NCC2CCCN(Cc3ccccc3F)C2)CCCC1` (stereo not drawn), with -1.04%. For the compound `CCn1nc(C)c(C(=O)N2C[C@@H](CN(C)C)[C@@H](CO)C2)c1C`, the cytotoxicity at 70.5 h was determined as 0.473%. As for `CC1(Cc2ccc3c(c2)OCO3)CCCN(S(=O)(=O)N2CCOCC2)C1` (stereo not drawn), the cytotoxicity at 70.5 h was -6.32%. For `O=S(=O)(NCc1ccccc1)NCc1nc(-c2ccncc2)n[nH]1` the value was -5.68%.
